Results taken from PubChem BioAssay (NCI).
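Briefly, cells in 96-well plates were exposed to five compound concentrations for 48 h, and endpoints were estimated by linear interpolation. GI50 = concentration required for 50% inhibition of growth. TGI is the concentration that stops growth completely.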

Legend:
Test in all cases: growth of human tumour cells (NCI), 48 h
ACHN renal = tested on: ACHN renal
CCRF-CEM leukemia = tested on: CCRF-CEM leukemia
HOP-62 NSCLC = tested on: HOP-62 NSCLC
IGROV1 ovarian = tested on: IGROV1 ovarian
NCI-H460 lung = tested on: NCI-H460 lung
SF-295 CNS = tested on: SF-295 CNS
SNB-19 CNS = tested on: SNB-19 CNS
UACC-257 melanoma = tested on: UACC-257 melanoma
UACC-62 melanoma = tested on: UACC-62 melanoma
SK-MEL-2 melanoma = tested on: SK-MEL-2 melanoma

O=c1nc2occc2cn1C1CC(O)C(CO)O1 (stereo not drawn)
TGI (ACHN renal): > 100 µM
TGI (CCRF-CEM leukemia): > 100 µM
TGI (HOP-62 NSCLC): > 100 µM
TGI (IGROV1 ovarian): > 100 µM
TGI (NCI-H460 lung): > 100 µM
TGI (SF-295 CNS): > 100 µM
TGI (SNB-19 CNS): > 100 µM
TGI (UACC-257 melanoma): > 100 µM
TGI (UACC-62 melanoma): > 100 µM

Clc1ccc2c(NCCCNc3nccc(Nc4ccc(Br)cc4)n3)ccnc2c1
GI50 (ACHN renal): 1660 nM
TGI (ACHN renal): 3.2 µM
GI50 (NCI-H460 lung): 1760 nM
TGI (NCI-H460 lung): 3.44 µM
GI50 (SF-295 CNS): 1560 nM
TGI (SF-295 CNS): 2.97 µM
GI50 (SK-MEL-2 melanoma): 2100 nM
TGI (SK-MEL-2 melanoma): 3.67 µM
GI50 (SNB-19 CNS): 1750 nM
TGI (SNB-19 CNS): 3.32 µM
GI50 (UACC-257 melanoma): 1.87 µM
TGI (UACC-257 melanoma): 3.4 µM
GI50 (UACC-62 melanoma): 1.88 µM
TGI (UACC-62 melanoma): 3.56 µM

O=C1CCCC/C(=C/c2ccccc2)N1
TGI (ACHN renal): > 100 µM
TGI (CCRF-CEM leukemia): > 100 µM
TGI (HOP-62 NSCLC): > 100 µM
TGI (IGROV1 ovarian): > 100 µM
TGI (NCI-H460 lung): > 100 µM
TGI (SF-295 CNS): > 100 µM
TGI (SK-MEL-2 melanoma): > 100 µM
TGI (UACC-257 melanoma): > 100 µM
TGI (UACC-62 melanoma): > 100 µM

CC(=O)O.CC(=O)O.CC(=O)O.CC(=O)O.CC(=O)O.CC(=O)O.O.[Ti].[Ti]
GI50 (ACHN renal): > 100000 nM
TGI (ACHN renal): > 100 µM
GI50 (CCRF-CEM leukemia): > 100000 nM
TGI (CCRF-CEM leukemia): > 100 µM
GI50 (HOP-62 NSCLC): > 100000 nM
TGI (HOP-62 NSCLC): > 100 µM
GI50 (IGROV1 ovarian): > 100000 nM
TGI (IGROV1 ovarian): > 100 µM
GI50 (SF-295 CNS): > 100000 nM
TGI (SF-295 CNS): > 100 µM
GI50 (SK-MEL-2 melanoma): > 100000 nM
TGI (SK-MEL-2 melanoma): > 100 µM
GI50 (SNB-19 CNS): 65600 nM
TGI (SNB-19 CNS): > 100 µM
GI50 (UACC-257 melanoma): > 100 µM
TGI (UACC-257 melanoma): > 100 µM
GI50 (UACC-62 melanoma): > 100 µM
TGI (UACC-62 melanoma): > 100 µM

Cc1ccccc1N1C(=O)/C(=C/c2ccc(N(CCC#N)CCC#N)cc2)N=C1c1cc([N+](=O)[O-])ccc1Cl
TGI (ACHN renal): > 100 µM
TGI (CCRF-CEM leukemia): > 100 µM
TGI (HOP-62 NSCLC): > 100 µM
TGI (IGROV1 ovarian): > 100 µM
TGI (NCI-H460 lung): > 100 µM
TGI (SF-295 CNS): > 100 µM
TGI (SK-MEL-2 melanoma): > 100 µM
TGI (SNB-19 CNS): > 100 µM
TGI (UACC-257 melanoma): > 100 µM
TGI (UACC-62 melanoma): > 100 µM

CC1OC2CC(=O)OC2C2=C1C(=O)c1c(O)cccc1C2=O (stereo not drawn)
GI50 (ACHN renal): 29.9 nM
TGI (ACHN renal): 0.0992 µM
GI50 (CCRF-CEM leukemia): 26.9 nM
TGI (CCRF-CEM leukemia): 0.501 µM
GI50 (HOP-62 NSCLC): 182 nM
TGI (HOP-62 NSCLC): 0.366 µM
GI50 (IGROV1 ovarian): 50.8 nM
TGI (IGROV1 ovarian): 0.112 µM
GI50 (NCI-H460 lung): 415 nM
TGI (NCI-H460 lung): 1.75 µM
GI50 (SF-295 CNS): 956 nM
TGI (SF-295 CNS): 2.62 µM
GI50 (SK-MEL-2 melanoma): 88.5 nM
TGI (SK-MEL-2 melanoma): 0.272 µM
GI50 (SNB-19 CNS): 1080 nM
TGI (SNB-19 CNS): 2.48 µM
GI50 (UACC-257 melanoma): 0.0748 µM
TGI (UACC-257 melanoma): 0.217 µM
GI50 (UACC-62 melanoma): 0.135 µM
TGI (UACC-62 melanoma): 0.287 µM

C=C(C)[C@@]12OC3(/C=C/C=C/CCCCC)O[C@@H]1[C@@H]1[C@@H]4O[C@]4(CO)[C@@H](O)[C@]4(O)C(=O)C(C)=C[C@H]4[C@@]1(O3)[C@H](C)[C@H]2OC(=O)c1ccccc1
GI50 (ACHN renal): 1160 nM
TGI (ACHN renal): 4.43 µM
GI50 (CCRF-CEM leukemia): < 10 nM
TGI (CCRF-CEM leukemia): 2.66 µM
GI50 (HOP-62 NSCLC): < 10 nM
TGI (HOP-62 NSCLC): 4.84 µM
GI50 (IGROV1 ovarian): 1620 nM
TGI (IGROV1 ovarian): 3.18 µM
GI50 (NCI-H460 lung): < 10 nM
TGI (NCI-H460 lung): 2.29 µM
GI50 (SF-295 CNS): < 10 nM
TGI (SF-295 CNS): 4.9 µM
GI50 (SK-MEL-2 melanoma): 1480 nM
TGI (SK-MEL-2 melanoma): 3.85 µM
GI50 (SNB-19 CNS): 1920 nM
TGI (SNB-19 CNS): 3.91 µM
GI50 (UACC-257 melanoma): 8.13 µM
TGI (UACC-257 melanoma): 21.5 µM
GI50 (UACC-62 melanoma): 3.19 µM
TGI (UACC-62 melanoma): 6.86 µM

Cc1ccc(S(=O)(=O)NCC2CCCCC2=O)cc1 (stereo not drawn)
TGI (CCRF-CEM leukemia): > 100 µM
TGI (IGROV1 ovarian): > 100 µM
TGI (NCI-H460 lung): > 100 µM
TGI (SF-295 CNS): > 100 µM
TGI (SK-MEL-2 melanoma): > 100 µM
TGI (SNB-19 CNS): > 100 µM
TGI (UACC-257 melanoma): 57.7 µM
TGI (UACC-62 melanoma): > 100 µM

O=C(Nc1nc2ncn(CCI)c2c(=O)[nH]1)c1ccccc1
TGI (ACHN renal): > 100 µM
TGI (CCRF-CEM leukemia): > 100 µM
TGI (HOP-62 NSCLC): > 81.1 µM
TGI (IGROV1 ovarian): > 100 µM
TGI (NCI-H460 lung): > 100 µM
TGI (SF-295 CNS): > 87.4 µM
TGI (SK-MEL-2 melanoma): > 92.3 µM
TGI (SNB-19 CNS): > 100 µM
TGI (UACC-257 melanoma): > 100 µM
TGI (UACC-62 melanoma): > 100 µM

S=C(N/N=C/c1ccco1)NC12CC3CC(CC(C3)C1)C2
TGI (ACHN renal): > 100 µM
TGI (CCRF-CEM leukemia): > 100 µM
TGI (HOP-62 NSCLC): > 100 µM
TGI (IGROV1 ovarian): > 100 µM
TGI (NCI-H460 lung): > 100 µM
TGI (SF-295 CNS): > 100 µM
TGI (SK-MEL-2 melanoma): > 100 µM
TGI (SNB-19 CNS): > 100 µM
TGI (UACC-257 melanoma): > 100 µM
TGI (UACC-62 melanoma): > 100 µM

CC/C(=C(/c1ccc(OCCN(C)C)cc1)c1ccc(OC(=O)CCCCC(=O)c2c(C)[nH]c(/C=C3\N=C(c4ccc[nH]4)C=C3OC)c2C)cc1)c1ccccc1
GI50 (ACHN renal): 4840 nM
TGI (ACHN renal): 22.8 µM
GI50 (CCRF-CEM leukemia): 320 nM
TGI (CCRF-CEM leukemia): > 100 µM
GI50 (HOP-62 NSCLC): 12300 nM
TGI (HOP-62 NSCLC): 24.7 µM
GI50 (IGROV1 ovarian): 13300 nM
TGI (IGROV1 ovarian): 46 µM
GI50 (NCI-H460 lung): 3990 nM
TGI (NCI-H460 lung): 15.5 µM
GI50 (SK-MEL-2 melanoma): 16700 nM
TGI (SK-MEL-2 melanoma): 33.5 µM
GI50 (SNB-19 CNS): 12800 nM
TGI (SNB-19 CNS): 27.4 µM
GI50 (UACC-257 melanoma): 12 µM
TGI (UACC-257 melanoma): 28.9 µM
GI50 (UACC-62 melanoma): 4.94 µM
TGI (UACC-62 melanoma): 17.8 µM

O=C1c2ccccc2C(=O)C1(Cl)C1(S(=O)(=O)O)c2ccccc2-c2ccccc21
TGI (ACHN renal): > 100 µM
TGI (CCRF-CEM leukemia): > 100 µM
TGI (HOP-62 NSCLC): > 100 µM
TGI (IGROV1 ovarian): > 100 µM
TGI (NCI-H460 lung): > 100 µM
TGI (SF-295 CNS): > 100 µM
TGI (UACC-257 melanoma): > 100 µM
TGI (UACC-62 melanoma): > 100 µM

CCOC(=O)Oc1c(OC)cc(C(=O)NC2CCc3cc(OC)c(OC)c(OC)c3-c3ccc(SC)c(=O)cc32)cc1OC (stereo not drawn)
GI50 (ACHN renal): 235 nM
TGI (ACHN renal): > 70 µM
GI50 (HOP-62 NSCLC): 32.8 nM
TGI (HOP-62 NSCLC): 59.6 µM
GI50 (IGROV1 ovarian): < 7 nM
TGI (IGROV1 ovarian): > 70 µM
GI50 (NCI-H460 lung): 16 nM
GI50 (SF-295 CNS): 24.2 nM
TGI (SK-MEL-2 melanoma): 0.0832 µM
GI50 (SNB-19 CNS): 23.5 nM
TGI (SNB-19 CNS): 53.6 µM
GI50 (UACC-257 melanoma): < 0.007 µM
TGI (UACC-257 melanoma): > 70 µM
GI50 (UACC-62 melanoma): 0.00881 µM
TGI (UACC-62 melanoma): > 70 µM

CCCCN(CCCC)CC(C(=O)Nc1ccc([N+](=O)[O-])cc1[N+](=O)[O-])/C(C)=N\NC(=S)NN (stereo not drawn)
TGI (ACHN renal): > 100 µM
TGI (CCRF-CEM leukemia): > 100 µM
TGI (HOP-62 NSCLC): > 100 µM
TGI (IGROV1 ovarian): > 100 µM
TGI (NCI-H460 lung): > 100 µM
TGI (SF-295 CNS): > 100 µM
TGI (SK-MEL-2 melanoma): > 100 µM
TGI (UACC-257 melanoma): > 100 µM
TGI (UACC-62 melanoma): > 100 µM

O=C(Nc1ccc(OS(=O)(=O)c2ccccc2)cc1)C12CC3CC(CC(C3)C1)C2
GI50 (ACHN renal): > 100000 nM
TGI (ACHN renal): > 100 µM
GI50 (CCRF-CEM leukemia): 3730 nM
TGI (CCRF-CEM leukemia): > 100 µM
GI50 (HOP-62 NSCLC): > 100000 nM
TGI (HOP-62 NSCLC): > 100 µM
GI50 (IGROV1 ovarian): > 100000 nM
TGI (IGROV1 ovarian): > 100 µM
GI50 (NCI-H460 lung): 6100 nM
TGI (NCI-H460 lung): > 100 µM
GI50 (SF-295 CNS): 8270 nM
TGI (SF-295 CNS): > 100 µM
GI50 (SK-MEL-2 melanoma): > 100000 nM
TGI (SK-MEL-2 melanoma): > 100 µM
GI50 (SNB-19 CNS): > 100000 nM
TGI (SNB-19 CNS): > 100 µM
GI50 (UACC-257 melanoma): 13.5 µM
TGI (UACC-257 melanoma): > 100 µM
GI50 (UACC-62 melanoma): 6.47 µM
TGI (UACC-62 melanoma): > 100 µM

Cc1cc(Br)cc(C)c1NC(=O)C(=O)C(C(=O)c1ccc2ccccc2c1)C1OC(=O)c2ccccc21 (stereo not drawn)
TGI (ACHN renal): 34.7 µM
TGI (CCRF-CEM leukemia): 45.1 µM
TGI (HOP-62 NSCLC): 18.7 µM
TGI (IGROV1 ovarian): 51.8 µM
TGI (NCI-H460 lung): 20.9 µM
TGI (SF-295 CNS): 14.9 µM
TGI (SK-MEL-2 melanoma): 34.5 µM
TGI (SNB-19 CNS): 29.3 µM
TGI (UACC-257 melanoma): 17.5 µM
TGI (UACC-62 melanoma): 29.6 µM
